Experimental data as given in ChEMBL document CHEMBL5223102, “CDK9 inhibitors in cancer research” (RSC Med Chem, 2022).
Blank lines part the entries; values can stand above or below the compound they belong to.

Legend:
[1] = target: T1, Cyclin-dependent kinase 6 (Homo sapiens, UniProt Q00534); assay: Inhibition of CDK6 (unknown origin)
[2] = target: T2, Cyclin-dependent kinase 8 (Homo sapiens, UniProt P49336); assay: Inhibition of CDK8 (unknown origin)
[3] = target: T3, Cyclin-dependent kinase 2 (Homo sapiens, UniProt P24941)
[4] = target: T4, Cyclin-dependent kinase 5 (Homo sapiens, UniProt Q00535); assay: Inhibition of CDK5 (unknown origin)
T4 sequence (Q00535 whole entry): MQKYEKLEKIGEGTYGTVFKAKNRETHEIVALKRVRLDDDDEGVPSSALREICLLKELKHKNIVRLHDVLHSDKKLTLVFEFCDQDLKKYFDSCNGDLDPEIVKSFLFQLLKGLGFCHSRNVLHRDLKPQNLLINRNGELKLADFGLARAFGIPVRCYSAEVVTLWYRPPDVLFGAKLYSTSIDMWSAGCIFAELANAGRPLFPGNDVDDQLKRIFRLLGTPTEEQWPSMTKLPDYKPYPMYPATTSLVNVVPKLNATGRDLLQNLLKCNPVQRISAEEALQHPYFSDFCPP

[5] = target: Cyclin-dependent kinase 12 (Homo sapiens, UniProt Q9NYV4)
[6] = target: T3, Cyclin-dependent kinase 2; assay: Inhibition of CDK2 (unknown origin) incubated for 120 mins in presence of ATP by HotSpot kinase assay
[7] = target: T5, Cyclin-dependent kinase 4 (Homo sapiens, UniProt P11802); assay: Inhibition of CDK4 (unknown origin) incubated for 120 mins in presence of ATP by HotSpot kinase assay
T5 sequence (P11802 whole entry): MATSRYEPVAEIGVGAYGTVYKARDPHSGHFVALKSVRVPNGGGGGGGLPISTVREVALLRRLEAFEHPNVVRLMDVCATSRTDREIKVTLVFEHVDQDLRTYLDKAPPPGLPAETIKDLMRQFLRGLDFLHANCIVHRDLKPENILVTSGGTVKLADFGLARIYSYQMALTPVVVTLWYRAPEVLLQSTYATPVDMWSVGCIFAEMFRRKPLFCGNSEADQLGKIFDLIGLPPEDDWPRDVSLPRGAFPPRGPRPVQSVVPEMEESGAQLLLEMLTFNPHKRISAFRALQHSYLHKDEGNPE

[8] = target: Cyclin-dependent kinase 3 (Homo sapiens, UniProt Q00526); assay: Inhibition of CDK3 (unknown origin) incubated for 120 mins in presence of ATP by HotSpot kinase assay
[9] = target: T2, Cyclin-dependent kinase 8; assay: Inhibition of CDK8 (unknown origin) incubated for 120 mins in presence of ATP by HotSpot kinase assay
[10] = target: Cyclin-dependent kinase 19 (Homo sapiens, UniProt Q9BWU1); assay: Inhibition of CDK19 (unknown origin) incubated for 120 mins in presence of ATP by HotSpot kinase assay
[11] = target: T6, Cyclin-dependent kinase 17 (Homo sapiens, UniProt Q00537); assay: Inhibition of CDK17 (unknown origin) incubated for 120 mins in presence of ATP by HotSpot kinase assay
T6 sequence (Q00537 whole entry): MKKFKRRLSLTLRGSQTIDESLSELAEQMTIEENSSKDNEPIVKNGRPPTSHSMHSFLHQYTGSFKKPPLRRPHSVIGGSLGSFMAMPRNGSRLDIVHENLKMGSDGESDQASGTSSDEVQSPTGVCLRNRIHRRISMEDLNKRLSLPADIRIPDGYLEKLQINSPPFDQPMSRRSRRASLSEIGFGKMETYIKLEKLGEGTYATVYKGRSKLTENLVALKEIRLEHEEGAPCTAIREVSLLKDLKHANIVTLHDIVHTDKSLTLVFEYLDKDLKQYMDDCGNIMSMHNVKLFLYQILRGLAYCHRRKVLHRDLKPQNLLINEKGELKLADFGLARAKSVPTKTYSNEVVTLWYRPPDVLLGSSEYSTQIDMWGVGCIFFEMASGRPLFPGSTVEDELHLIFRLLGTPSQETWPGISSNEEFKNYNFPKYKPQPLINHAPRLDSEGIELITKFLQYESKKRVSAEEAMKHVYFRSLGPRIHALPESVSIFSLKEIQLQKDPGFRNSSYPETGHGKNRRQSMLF

[12] = target: Cyclin-dependent kinase 13 (Homo sapiens, UniProt Q14004)
[13] = target: T7, Cyclin-dependent kinase 14 (Homo sapiens, UniProt O94921); assay: Inhibition of CDK14 (unknown origin) incubated for 120 mins in presence of ATP by HotSpot kinase assay
T7 sequence (O94921 whole entry): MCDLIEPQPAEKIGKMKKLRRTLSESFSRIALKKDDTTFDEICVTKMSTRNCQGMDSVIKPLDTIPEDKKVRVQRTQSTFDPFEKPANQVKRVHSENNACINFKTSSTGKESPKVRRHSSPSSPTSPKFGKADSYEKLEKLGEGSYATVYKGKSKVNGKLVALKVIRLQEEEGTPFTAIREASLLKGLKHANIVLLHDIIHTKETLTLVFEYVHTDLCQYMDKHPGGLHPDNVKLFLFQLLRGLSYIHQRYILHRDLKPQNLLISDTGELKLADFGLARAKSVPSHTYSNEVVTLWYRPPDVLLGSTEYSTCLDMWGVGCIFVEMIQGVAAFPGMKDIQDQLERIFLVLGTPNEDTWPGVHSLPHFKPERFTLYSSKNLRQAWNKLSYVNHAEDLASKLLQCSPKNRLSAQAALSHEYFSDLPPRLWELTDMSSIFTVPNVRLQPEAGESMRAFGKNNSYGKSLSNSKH

[14] = target: T8, Cyclin-dependent kinase 18 (Homo sapiens, UniProt Q07002)
T8 sequence (Q07002 whole entry): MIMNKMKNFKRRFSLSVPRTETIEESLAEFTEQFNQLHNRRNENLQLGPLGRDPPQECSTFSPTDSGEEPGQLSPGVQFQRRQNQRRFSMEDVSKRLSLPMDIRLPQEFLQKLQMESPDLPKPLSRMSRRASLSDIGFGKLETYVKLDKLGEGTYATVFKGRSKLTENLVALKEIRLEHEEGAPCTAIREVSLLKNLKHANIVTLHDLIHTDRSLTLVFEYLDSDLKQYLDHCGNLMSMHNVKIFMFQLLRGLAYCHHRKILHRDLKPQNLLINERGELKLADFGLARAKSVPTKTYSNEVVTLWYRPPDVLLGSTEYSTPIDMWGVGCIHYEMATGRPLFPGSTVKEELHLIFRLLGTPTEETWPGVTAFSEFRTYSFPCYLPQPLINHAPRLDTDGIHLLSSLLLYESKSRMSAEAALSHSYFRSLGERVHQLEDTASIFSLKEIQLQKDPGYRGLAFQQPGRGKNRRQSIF

[15] = target: T1, Cyclin-dependent kinase 6; assay: Inhibition of CDK6 (unknown origin) incubated for 120 mins in presence of ATP by HotSpot kinase assay
[16] = target: T9, Cyclin-dependent kinase 16 (Homo sapiens, UniProt Q00536); assay: Inhibition of CDK16 (unknown origin) incubated for 120 mins in presence of ATP by HotSpot kinase assay
[17] = target: T4, Cyclin-dependent kinase 5; assay: Inhibition of CDK5 (unknown origin) incubated for 120 mins in presence of ATP by HotSpot kinase assay
[18] = target: T2, Cyclin-dependent kinase 8; assay: Inhibition of CDK8 (unknown origin) by LANCE ULight TR-FRET assay
[19] = target: T10, Cyclin-dependent kinase 7 (Homo sapiens, UniProt P50613); assay: Inhibition of CDK7 (unknown origin) by LANCE ULight TR-FRET assay
T10 sequence (P50613 whole entry): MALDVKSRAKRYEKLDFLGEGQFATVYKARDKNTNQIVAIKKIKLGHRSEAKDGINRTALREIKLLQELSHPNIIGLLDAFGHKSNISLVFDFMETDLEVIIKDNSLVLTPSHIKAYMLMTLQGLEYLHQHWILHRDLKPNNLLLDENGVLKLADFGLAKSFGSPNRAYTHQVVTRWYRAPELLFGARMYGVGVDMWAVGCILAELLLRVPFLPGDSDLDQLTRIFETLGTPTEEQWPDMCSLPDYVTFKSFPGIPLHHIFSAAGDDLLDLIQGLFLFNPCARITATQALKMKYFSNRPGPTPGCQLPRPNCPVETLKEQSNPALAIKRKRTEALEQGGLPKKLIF

[20] = target: T5, Cyclin-dependent kinase 4; assay: Inhibition of CDK4 (unknown origin) by LANCE ULight TR-FRET assay
[21] = target: T11, Cyclin-dependent kinase 1 (Homo sapiens, UniProt P06493); assay: Inhibition of CDK1 (unknown origin) by LANCE ULight TR-FRET assay
T11 sequence (P06493 whole entry): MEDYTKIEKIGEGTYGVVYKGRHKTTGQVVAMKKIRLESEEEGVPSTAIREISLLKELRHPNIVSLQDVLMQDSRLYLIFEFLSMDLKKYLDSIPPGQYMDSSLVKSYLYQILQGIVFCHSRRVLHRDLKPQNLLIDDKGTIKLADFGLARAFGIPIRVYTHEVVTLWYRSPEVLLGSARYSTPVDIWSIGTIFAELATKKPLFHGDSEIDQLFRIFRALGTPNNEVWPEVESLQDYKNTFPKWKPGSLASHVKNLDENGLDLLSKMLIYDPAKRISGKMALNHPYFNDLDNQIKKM

[22] = target: T3, Cyclin-dependent kinase 2; assay: Inhibition of CDK2 (unknown origin) by LANCE ULight TR-FRET assay
[23] = target: T12, Protein cereblon/Cyclin-dependent kinase 9 (Homo sapiens, UniProt P50750+Q96SW2); assay: Protac activity at CRBN/CDK9 in human MCF7 cells assessed as degradation of CDK9 measured after 24 hrs by western blot analysis; type: cell-based
T12 sequence (P50750 whole entry): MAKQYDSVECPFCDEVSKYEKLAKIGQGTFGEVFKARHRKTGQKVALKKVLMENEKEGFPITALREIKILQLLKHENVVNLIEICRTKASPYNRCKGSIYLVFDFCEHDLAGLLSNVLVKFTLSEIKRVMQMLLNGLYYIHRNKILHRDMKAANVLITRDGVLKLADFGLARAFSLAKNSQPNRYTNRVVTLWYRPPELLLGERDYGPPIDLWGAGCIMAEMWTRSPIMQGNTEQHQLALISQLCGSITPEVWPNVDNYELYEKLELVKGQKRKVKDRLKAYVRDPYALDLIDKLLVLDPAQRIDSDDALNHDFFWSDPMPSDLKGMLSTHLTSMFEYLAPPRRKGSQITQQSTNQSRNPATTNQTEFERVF
T12 sequence (Q96SW2 whole entry): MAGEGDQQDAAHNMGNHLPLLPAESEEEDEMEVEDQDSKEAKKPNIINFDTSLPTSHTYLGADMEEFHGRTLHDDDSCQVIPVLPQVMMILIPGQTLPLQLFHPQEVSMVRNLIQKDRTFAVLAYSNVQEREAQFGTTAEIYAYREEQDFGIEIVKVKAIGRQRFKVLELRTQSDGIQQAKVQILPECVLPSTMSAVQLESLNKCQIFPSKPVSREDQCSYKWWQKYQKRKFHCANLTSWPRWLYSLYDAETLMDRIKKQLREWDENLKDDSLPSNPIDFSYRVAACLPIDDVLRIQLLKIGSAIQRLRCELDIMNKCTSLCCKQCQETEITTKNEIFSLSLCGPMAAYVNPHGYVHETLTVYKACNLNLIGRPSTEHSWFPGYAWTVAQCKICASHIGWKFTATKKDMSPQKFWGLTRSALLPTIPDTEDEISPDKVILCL

[24] = target: T12, Protein cereblon/Cyclin-dependent kinase 9; assay: Protac activity at CRBN/CDK9 in human MOLT-4 cells assessed as degradation of CDK9 measured after 6 hrs by western blot analysis; type: cell-based
[25] = target: T5, Cyclin-dependent kinase 4; assay: Inhibition of CDK4 (unknown origin)
[26] = target: T13, Cyclin-dependent kinase 4/cyclin D1 (Homo sapiens, UniProt P11802); assay: Inhibition of human CDK4/Cyclin D1 assessed as substrate phosphorylation at ser780 using GST tagged retinoblastoma as substrate in presence of gamma32P-ATP by scintillation counter analysis; type: protein-complex assay
T13 sequence (P11802 whole entry): as the sequence (P11802 whole entry) above
T13 sequence (P24385 whole entry, further chain): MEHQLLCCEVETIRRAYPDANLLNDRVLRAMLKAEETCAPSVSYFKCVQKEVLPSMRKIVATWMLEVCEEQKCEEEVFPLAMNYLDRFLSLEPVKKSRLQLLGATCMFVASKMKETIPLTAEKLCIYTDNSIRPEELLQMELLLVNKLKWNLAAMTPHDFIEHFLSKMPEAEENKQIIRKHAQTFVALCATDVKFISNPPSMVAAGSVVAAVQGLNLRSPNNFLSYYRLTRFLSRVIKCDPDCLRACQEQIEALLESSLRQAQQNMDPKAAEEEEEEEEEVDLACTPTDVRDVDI

[27] = target: T14, Cyclin-dependent kinase 1/cyclin B (Homo sapiens, UniProt P06493); assay: Inhibition of human CDK1/Cyclin B in presence of gamma32P-ATP by scintillation counter analysis; type: protein-complex assay
[28] = target: CDK6/cyclin D3 (Homo sapiens, UniProt Q00534); assay: Inhibition of human CDK6/Cyclin D3 in presence of gamma32P-ATP by scintillation counter analysis; type: protein-complex assay
[29] = target: T15, Cyclin-dependent kinase 2/cyclin A (Homo sapiens, UniProt P24941); assay: Inhibition of human CDK2/Cyclin A in presence of gamma32P-ATP by scintillation counter analysis; type: protein-complex assay
[30] = target: Cyclin-dependent kinase 5/CDK5 activator 1 (Homo sapiens, UniProt Q00535); assay: Inhibition of CDK5/p35 (unknown origin); type: protein-complex assay
[31] = target: T16, Cyclin-dependent kinase 9 (Homo sapiens, UniProt P50750)
T16 sequence (P50750 whole entry): as the sequence (P50750 whole entry) above

[32] = target: T15, Cyclin-dependent kinase 2/cyclin A; assay: Inhibition of CDK2/cyclin A (unknown origin) using GST-CTD and gamma-32P-ATP as substrate incubated for 5 min by […]; type: protein-complex assay
[33] = target: T14, Cyclin-dependent kinase 1/cyclin B; assay: Inhibition of CDK1/Cyclin B (unknown origin); type: protein-complex assay
[34] = Inhibition of CDK4/Cyclin D (unknown origin); design: species or system Homo sapiens
[35] = Inhibition of CDK3/Cyclin E (unknown origin); design: species or system Homo sapiens
[36] = Inhibition of CDK7/Cyclin H/MAT1 (unknown origin); design: species or system Homo sapiens
[37] = Inhibition of CDK6/Cyclin D3 (unknown origin); design: species or system Homo sapiens
[38] = target: CDK9/Cyclin K (Homo sapiens, UniProt P50750); assay: Inhibition of CDK9/Cyclin K (unknown origin) by LanthaScreen binding assay; type: protein-complex assay
[39] = target: Cyclin-C/Cyclin-dependent kinase 19 (Homo sapiens, UniProt Q9BWU1); assay: Inhibition of CDK19/Cyclin C (unknown origin) by LanthaScreen binding assay; type: protein-complex assay
[40] = target: CDK8/Cyclin C (Homo sapiens, UniProt P49336); assay: Inhibition of CDK8/Cyclin C (unknown origin) by LanthaScreen binding assay; type: protein-complex assay
[41] = target: T16, Cyclin-dependent kinase 9; assay: Inhibition of CDK9 (unknown origin) using TMB as substrate by ELISA
[42] = target: T1, Cyclin-dependent kinase 6; assay: Inhibition of CDK6 (unknown origin) assessed as substrate phosphorylation using ULight MBP peptide as substrate in presence of ATP incubated for 1 hr by FRET based LANCE Ultra KinaSelect screen assay
[43] = target: Cyclin-dependent kinase 1/cyclin B1 (Homo sapiens, UniProt P06493); assay: Inhibition of CDK1/cyclin B1 (unknown origin) assessed as substrate phosphorylation using ULight MBP peptide as substrate in presence of ATP incubated for 1 hr by FRET based LANCE Ultra KinaSelect screen assay; type: protein-complex assay
[44] = target: T13, Cyclin-dependent kinase 4/cyclin D1; assay: Inhibition of CDK4/cyclin D1 (unknown origin) assessed as substrate phosphorylation using ULight MBP peptide as substrate in presence of ATP incubated for 1 hr by FRET based LANCE Ultra KinaSelect screen assay; type: protein-complex assay
[45] = target: T15, Cyclin-dependent kinase 2/cyclin A; assay: Inhibition of CDK2/cyclin A (unknown origin) assessed as substrate phosphorylation using ULight MBP peptide as substrate in presence of ATP incubated for 1 hr by FRET based LANCE Ultra KinaSelect screen assay; type: protein-complex assay
[46] = target: T10, Cyclin-dependent kinase 7; assay: Inhibition of CDK7 (unknown origin) assessed as substrate phosphorylation using ULight MBP peptide as substrate in presence of ATP incubated for 1 hr by FRET based LANCE Ultra KinaSelect screen assay
[47] = target: CDK4/Cyclin D3 (Homo sapiens, UniProt P11802); assay: Inhibition of human CDK4/Cyclin D3 in presence of ATP; type: protein-complex assay
[48] = target: CDK9/cyclin T1 (Homo sapiens, UniProt P50750); assay: Inhibition of human CDK9/cyclin T1 in presence of ATP; type: protein-complex assay
[49] = target: T16, Cyclin-dependent kinase 9; assay: Inhibition of CDK9 (unknown origin) by Kinomescan method
[50] = target: Dual specificity tyrosine-phosphorylation-regulated kinase 1B (Homo sapiens, UniProt Q9Y463); assay: Inhibition of DYRK1B (unknown origin) by Kinomescan method
[51] = target: T16, Cyclin-dependent kinase 9; assay: Inhibition of CDK9 (unknown origin) at 1 uM by Kinomescan method
[52] = target: T11, Cyclin-dependent kinase 1; assay: Inhibition of CDK1 (unknown origin) by Kinomescan method
[53] = target: T7, Cyclin-dependent kinase 14; assay: Inhibition of CDK14 (unknown origin) by Kinomescan method
[54] = target: T8, Cyclin-dependent kinase 18; assay: Inhibition of CDK18 (unknown origin) by Kinomescan method
[55] = target: T2, Cyclin-dependent kinase 8; assay: Inhibition of CDK8 (unknown origin) by Kinomescan method
[56] = target: T6, Cyclin-dependent kinase 17; assay: Inhibition of CDK17 (unknown origin) by Kinomescan method
[57] = target: T4, Cyclin-dependent kinase 5; assay: Inhibition of CDK5 (unknown origin) by Kinomescan method
[58] = target: T10, Cyclin-dependent kinase 7
[59] = target: T3, Cyclin-dependent kinase 2; assay: Inhibition of CDK2 (unknown origin) by Kinomescan method
[60] = target: T9, Cyclin-dependent kinase 16; assay: Inhibition of CDK16 (unknown origin) by Kinomescan method

T1 sequence (Q00534 whole entry): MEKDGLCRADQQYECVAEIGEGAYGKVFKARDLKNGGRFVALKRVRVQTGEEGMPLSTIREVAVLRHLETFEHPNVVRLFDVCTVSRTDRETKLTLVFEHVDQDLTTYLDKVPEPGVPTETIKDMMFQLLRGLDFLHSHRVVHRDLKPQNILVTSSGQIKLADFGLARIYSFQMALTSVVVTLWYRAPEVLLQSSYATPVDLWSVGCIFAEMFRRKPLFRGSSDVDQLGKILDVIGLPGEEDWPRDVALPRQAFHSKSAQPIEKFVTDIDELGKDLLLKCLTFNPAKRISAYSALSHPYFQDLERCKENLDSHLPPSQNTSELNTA
T2 sequence (P49336 whole entry): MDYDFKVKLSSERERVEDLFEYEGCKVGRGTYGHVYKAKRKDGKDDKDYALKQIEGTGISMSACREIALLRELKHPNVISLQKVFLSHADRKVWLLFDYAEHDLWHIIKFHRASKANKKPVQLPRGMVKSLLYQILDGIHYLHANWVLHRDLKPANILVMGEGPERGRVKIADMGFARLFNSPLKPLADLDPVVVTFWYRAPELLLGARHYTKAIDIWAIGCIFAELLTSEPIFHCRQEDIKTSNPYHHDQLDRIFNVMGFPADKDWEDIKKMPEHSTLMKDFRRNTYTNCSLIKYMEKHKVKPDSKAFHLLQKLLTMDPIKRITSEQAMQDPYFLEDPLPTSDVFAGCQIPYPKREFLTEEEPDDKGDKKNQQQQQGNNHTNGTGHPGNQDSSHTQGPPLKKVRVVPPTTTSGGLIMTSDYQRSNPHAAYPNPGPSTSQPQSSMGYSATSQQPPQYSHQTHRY

IC50 [1]: 210 nM | IC50 [2]: 12 nM | IC50 [3]: 180 nM | IC50 [4]: 210 nM
SMILES: CN1CC[C@@H](c2c(O)cc(O)c3c(=O)cc(-c4ccc(C(F)(F)F)cc4Cl)oc23)[C@@H]1CO [VORUCICLIB]

IC50 [5]: 6200 nM | IC50 [6]: 18200 nM | IC50 [7]: > 1200 nM | IC50 [8]: > 1200 nM | IC50 [9]: > 1200 nM | IC50 [10]: > 1200 nM | IC50 [11]: > 1200 nM | IC50 [12]: 4550 nM | IC50 [13]: > 1200 nM | IC50 [14]: > 1200 nM | IC50 [15]: > 1200 nM | IC50 [16]: > 1200 nM | IC50 [17]: > 1200 nM
SMILES: CCCc1cc(N[C@@H]2CC[C@@H](N)C2)n2nccc2n1

SMILES: COc1ccc(F)cc1-c1c(F)cnc2[nH]c(C3=CCN([C@H]4CC[C@H](C(=O)O)CC4)CC3)cc12
IC50 [18]: 1610 nM | IC50 [19]: 14400 nM | IC50 [20]: 16.2 nM | IC50 [21]: 348 nM | IC50 [22]: 328 nM

DC50 [23]: 10000 nM
SMILES: O=C1CCC(N2C(=O)c3cccc(NC(=O)CCCCCn4cc(Oc5c(O)cc(O)c6c(=O)cc(-c7ccccc7)oc56)nn4)c3C2=O)C(=O)N1 (configuration not stated)

DC50 [24]: < 250 nM
SMILES: CC(C)(C)c1cnc(CSc2cnc(NC(=O)C3CCN(CC(=O)NCCOCCOCCOCCNc4cccc5c4C(=O)N(C4CCC(=O)NC4=O)C5=O)CC3)s2)o1 (configuration not stated)

IC50 [25]: 30000 nM
SMILES: Fc1ccc(N2CCCCC2)c(NC(=S)c2ccncc2)c1

IC50 [26]: 63 nM | IC50 [27]: 79 nM | IC50 [28]: 396 nM | IC50 [29]: 224 nM
SMILES: CN1CCC(c2c(O)cc(O)c3c(=O)cc(-c4ccccc4Cl)oc23)C1CO (configuration not stated) [RIVICICLIB]

IC50 [30]: 5 nM
SMILES: COCCN1CCN(Cc2ccc(-c3n[nH]c4c3C(=O)c3c(NC(=O)NN5CCOCC5)cccc3-4)cc2)CC1 [RGB-286638]

IC50 [31]: 30 nM | IC50 [3]: 1180 nM
SMILES: COc1cc(O)c2c(=O)cc(-c3ccc(N4CCN(C)CC4)cc3)oc2c1N1CCNCC1

IC50 [32]: 3500 nM
SMILES: Nc1n[nH]c(N)c1/N=N/c1ccc(O)cc1

IC50 [33]: 138 nM | IC50 [34]: 112 nM | IC50 [30]: 159 nM | IC50 [35]: 399 nM | IC50 [36]: 555 nM | IC50 [37]: 712 nM
SMILES: Nc1nc(N[C@H]2CC3CCC2C3)sc1C(=O)c1ccccc1[N+](=O)[O-] (some centres not stated)

IC50 [38]: 20 nM | IC50 [39]: 2.7 nM | IC50 [40]: 1.1 nM
SMILES: CC(C)c1ccc(Nc2nccc(-c3cnn4ncccc34)n2)cc1 [GW805758X]

IC50 [41]: 500 nM
SMILES: O=C1N=NC(=O)/C(=C/Nc2ccc(-c3nc4ncccc4[nH]3)cc2)C(=O)N1

IC50 [42]: > 10000 nM | IC50 [43]: 5510 nM | IC50 [44]: 9240 nM | IC50 [45]: 2440 nM | IC50 [46]: > 10000 nM
SMILES: COc1ccccc1-c1cc(Nc2cccc(CS(N)(=O)=O)c2)ncn1

IC50 [47]: 2.5 nM | IC50 [48]: 7 nM
SMILES: CN(C)CCNC(=O)c1ccc(Nc2ncc3cc(C(=O)N(C)C)n(C4CCCC4)c3n2)c(F)c1

IC50 [49]: < 0.514 nM | IC50 [50]: 350 nM | inhibition [51]: 99% | IC50 [52]: 584 nM | IC50 [53]: 3450 nM | IC50 [54]: 4900 nM | IC50 [55]: > 10000 nM | IC50 [56]: 1500 nM | IC50 [57]: 1050 nM | IC50 [58]: > 10000 nM | IC50 [59]: 706 nM | IC50 [60]: 605 nM
SMILES: COC[C@@H](C)N[C@H]1CC[C@H](Nc2cc(-c3cccc(NCC4(C#N)CCOCC4)n3)c(Cl)cn2)CC1
